In patent publication US12612410B2 (CHILDREN'S HOSPITAL MEDICAL CENTER, priority 2020, dated 2026):

Experiments:
Type in all cases: cell-based
NF-κB [1] = experiment: NF-kB SEAP reporter assay in THP-1-Blue NF-κB cells, Pam3CSK4 stimulation; conditions: Pam3CSK4 1 ng/mL, read-out: NF-κB Pam3SCK4 IC50
Method: (§1) THP-1-Blue NF-xB cells (InvivoGen) carrying a stable integrated NF-κB-inducible secreted embryonic alkaline phosphatase (SEAP) reporter construct were plated at a concentration of 1×10^5 cells per well. The cells were stimulated with Pam3CSK4 (1 ng/mL) or hIL1B (1 ng/mL). After 10-20 minutes, the cells were then treated with vehicle (DMSO) or serial dilutions of the test compounds (10 doses tested for each test compound, with a 1:10 dilution series starting at 1 μM or 3 μM) with a final volume of 200 μL for 24 hours at 37° C. After 24 hours, the cells were centrifuged and 20 μL supernatant was incubated with 180 μL QUANTI-Blue reagent at 37° C. for 30-60 minutes. The levels of NF-κB-induced was measured in a microplate reader at 620 nm.

NF-κB [2] = experiment: NF-kB SEAP reporter assay in THP-1-Blue NF-κB cells, hIL1B stimulation; conditions: hIL1B 1 ng/mL, read-out: NF-κB IL1B IC50
Method: as §1

IRAK4 = target: T1, IRAK4 (Homo sapiens, UniProt Q9NWZ3); experiment: Reaction Biology NanoBRET target engagement assay, IRAK4; conditions: transfected HEK-293 cells
T1 sequence (Q9NWZ3 1-460): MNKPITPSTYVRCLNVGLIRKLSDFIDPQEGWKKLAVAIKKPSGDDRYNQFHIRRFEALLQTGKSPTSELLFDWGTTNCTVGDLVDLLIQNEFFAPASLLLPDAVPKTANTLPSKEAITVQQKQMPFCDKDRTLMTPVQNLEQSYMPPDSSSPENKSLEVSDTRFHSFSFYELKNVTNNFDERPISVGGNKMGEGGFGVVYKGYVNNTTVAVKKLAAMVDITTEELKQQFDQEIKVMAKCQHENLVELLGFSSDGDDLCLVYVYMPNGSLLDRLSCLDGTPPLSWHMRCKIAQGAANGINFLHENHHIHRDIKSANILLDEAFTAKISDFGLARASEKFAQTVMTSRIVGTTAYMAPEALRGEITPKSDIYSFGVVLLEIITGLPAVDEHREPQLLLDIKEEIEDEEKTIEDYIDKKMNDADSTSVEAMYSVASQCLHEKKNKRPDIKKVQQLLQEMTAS
Description: The NanoBRET assay measures kinase engagement in real time in the context of the intact cell. Unlike the previously described biochemical kinase assay methodologies in Examples 26-27, the NanoBRET assay measures the binding and activity characteristics under equilibrium conditions using full-length kinases in the presence of cellular concentrations of ATP in live, uncompromised cells. As such, the assay provides a more relevant assessment of kinase potency and selectivity that would be expected to be observed in the native cellular environment, where potency is often considerably lower than that observed in the isolated biochemical assays (Vasta, J. D. et al., (2018) Cell Chem. Biol. 25, 206-214). The assay uses a Kinase-NanoLuc® fusion vector expressing a kinase protein to which a luciferase tag has been added, a cell-permeant fluorescent NanoBRET™ tracer, a NanoLuc® substrate, and an extracellular NanoLuc® inhibitor. Upon expression of the luciferase-tagged kinase, cells will produce a strong BRET signal only in the presence of the NanoBRET™ tracer. The extracellular NanoLuc® inhibitor ensures that the BRET signal observed emanates only from live cells. Because the BRET signal has tight distance constraints, addition of the test compound will decrease the BRET signal if the compound competes with the NanoBRET™ tracer for binding to the kinase domain. Under the appropriate tracer conditions established by the manufacturer, quantitative intracellular affinity and relative potency can then be determined using Mass Action model equations.
HEK-293 cells were purchased from ATCC. FuGENEHD Transfection Reagent, Kinase-NanoLucfusion plasmids, Transfection Carrier DNA, NanoBRETTracers and dilution buffer, NanoBRETNano-Glo Substrate, Extracellular NanoLucInhibitor were obtained from Promega.
Assays were conducted following Promega assay protocol with some modifications. HEK-293 Cells were transiently transfected with Kinase-NanoLucFusion Vector DNA by FuGENEHD Transfection Reagent. Testing compounds were delivered into 384 well assay plate by Echo 550 (Labcytelnc, Sunnyvale, CA). Transfected cells were harvested and mixed with NanoBRETTracer Reagent and dispensed into 384 well plates and incubated at 37° C. in 5% CO2 cell culture incubator for 1 hour. The NanoBRETNano-Glo Substrate plus Extracellular NanoLucInhibitor Solution were added into the wells of the assay plate and incubated for 2-3 minutes at room temperature. The donor emission wavelength (460 nm) and acceptor emission wavelength (600 nm) were measured in the EnVisionplate reader. The BRET Ratios were calculated. BRET Ratio=[(Acceptor sample÷Donor sample)−(Acceptor no-tracer control÷Donor no-tracer control)]. The IC50 values of compounds were calculated with Prism GraphPad program.
NanoBRET™ Target Engagement Assay Protocol
1. Transient Transfection of HEK-293 Cells NanoLuc® Fusion Vector DNA
• 1). Cultivate HEK-293 cells (70-80% confluence) appropriately prior to assay. Trypsinize and collect HEK-293 cells. • 2). Prepare lipid: DNA complexes as follows: • a. Prepare a […] solution of DNA in Opti-MEM without serum that consists of the following ratios of carrier DNA and DNA encoding NanoLuc® fusion. 9.0 µg/mL of Transfection Carrier DNA, […] of NanoLuc fusion vector DNA and 1 mL of Opti-MEM without phenol red. Mix thoroughly. • b. Add 30 l of FuGENE HD Transfection Reagent into each milliliter of DNA mixture to form lipid: DNA complex. • c. Mix by inversion 10 times. • d. Incubate at ambient temperature for 20 minutes to allow complexes to form. • 3). In a sterile, conical tube, mix 1 part of lipid: DNA complex with 20 parts of HEK-293 cells in suspension. Mix gently by inversion 5 times. • 4). Dispense cells+lipid: DNA complex into a sterile tissue culture dish and incubate for 22-24 hours. 2. Addition of Test Compounds (dry plate shooting)
Each test compound is delivered from the compound source plate to the wells of 384-well white NBS plate by Echo 550.
3. […]

Row | IC50 (IRAK4) [nM] | Structure (SMILES) | also measured
1 | < 0.5 | CC(O)(c1cn2c(-c3cccc(N[C@H]4CNCC[C@@H]4F)n3)cnc2cn1)C(F)(F)F (single isomer, unassigned) [Compound 80] | IC50 (NF-κB [1]; 24 hours): 44 nM; IC50 (NF-κB [2]; 24 hours): 124 nM
2 | < 0.5 | FC(F)(F)COc1cn2c(-c3cccc(N[C@@H]4CCNC4)n3)cnc2cn1 [Compound 38, (R)-N-(pyrrolidin-3-yl)-6-(6-(2,2,2-trifluoroethoxy)imidazo[1,2-a]pyrazin-3-yl)pyridin-2-amine] | –
3 | < 0.5 | CC(C)(O)c1cn2c(-c3nc(N[C@H]4CNC[C@@H]4F)c(F)cc3F)cnc2cn1 [Compound 33, 2-(3-(3,5-difluoro-6-(((3S,4S)-4-fluoropyrrolidin-3-yl)amino)pyridin-2-yl)imidazo[1,2-a]pyrazin-6-yl)propan-2-ol] | –
4 | 0.9 | O=S1(=O)CCCN1c1cn2c(-c3cccc(N[C@H]4CNCC[C@@H]4F)n3)cnc2cn1 [Compound 97, 2-(3-(6-(((3S,4S)-4-fluoropiperidin-3-yl)amino)pyridin-2-yl)imidazo[1,2-a]pyrazin-6-yl)isothiazolidine 1,1-dioxide] | IC50 (NF-κB [1]; 24 hours): 83 nM; IC50 (NF-κB [2]; 24 hours): 164 nM
5 | < 0.5 | CC1(c2cn3c(-c4cccc(N[C@H]5CNC[C@@H]5F)n4)cnc3cn2)CC1 [Compound 1, N-((3S,4S)-4-fluoropyrrolidin-3-yl)-6-(6-(1-methylcyclopropyl)imidazo[1,2-a]pyrazin-3-yl)pyridin-2-amine] | IC50 (NF-κB [1]; 24 h): 6 nM; IC50 (NF-κB [2]; 24 h): 9 nM
6 | < 0.5 | CC(C)(C)c1cn2c(-c3nc(N[C@@H]4CCCNC4)c(F)cc3F)cnc2cn1 [Compound 126, (R)-6-(6-(tert-butyl)imidazo[1,2-a]pyrazin-3-yl)-3,5-difluoro-N-(piperidin-3-yl)pyridin-2-amine] | –
7 | < 0.5 | CC(C)(O)c1cn2c(-c3cccc(N[C@H]4CNCC[C@@H]4F)n3)cnc2cn1 [Compound 31, 2-(3-(6-(((3S,4S)-4-fluoropiperidin-3-yl)amino)pyridin-2-yl)imidazo[1,2-a]pyrazin-6-yl)propan-2-ol] | IC50 (NF-κB [1]; 24 h): 37 nM; IC50 (NF-κB [2]; 24 h): 44 nM
8 | 2 | O=C1CCCN1c1cn2c(-c3cccc(N[C@H]4CNC[C@@H]4F)n3)cnc2cn1 [Compound 121, 1-(3-(6-(((3S,4S)-4-fluoropyrrolidin-3-yl)amino)pyridin-2-yl)imidazo[1,2-a]pyrazin-6-yl)pyrrolidin-2-one] | IC50 (NF-κB [1]; 24 h): 54 nM; IC50 (NF-κB [2]; 24 h): 76 nM
9 | < 0.5 | CC(O)(c1cn2c(-c3cccc(N[C@H]4CNC[C@@H]4F)n3)cnc2cn1)C(F)(F)F (single isomer, unassigned) [Compound 77] | –
10 | 2 | O=C1CCCN1c1cn2c(-c3cccc(N[C@H]4CNCC[C@@H]4F)n3)cnc2cn1 [Compound 119, 1-(3-(6-(((3S,4S)-4-fluoropiperidin-3-yl)amino)pyridin-2-yl)imidazo[1,2-a]pyrazin-6-yl)pyrrolidin-2-one] | IC50 (NF-κB [1]; 24 hours): 56 nM; IC50 (NF-κB [2]; 24 hours): 1290 nM
11 | 84 | Cn1cc(-c2cn3c(-c4cccc(N[C@@H]5CCCNC5)n4)cnc3cn2)cn1 [Compound 43, (R)-6-(6-(1-methyl-1H-pyrazol-4-yl)imidazo[1,2-a]pyrazin-3-yl)-N-(piperidin-3-yl)pyridin-2-amine] | –
12 | 1 | O=C1CCCN1c1cn2c(-c3nc(N[C@@H]4CCCNC4)c(F)cc3F)cnc2cn1 [Compound 108, (R)-1-(3-(3,5-difluoro-6-(piperidin-3-ylamino)pyridin-2-yl)imidazo[1,2-a]pyrazin-6-yl)pyrrolidin-2-one] | –
13 | < 0.5 | CC(C)(C)c1cn2c(-c3nc(N[C@H]4CNC[C@@H]4F)c(F)cc3F)cnc2cn1 [Compound 125] | –
14 | – | O=C1NCCN1c1cn2c(-c3cccc(N[C@H]4CNCC[C@@H]4F)n3)cnc2cn1 [Compound 118, 1-(3-(6-(((3S,4S)-4-fluoropiperidin-3-yl)amino)pyridin-2-yl)imidazo[1,2-a]pyrazin-6-yl)imidazolidin-2-one] | IC50 (NF-κB [1]; 24 h): 101 nM; IC50 (NF-κB [2]; 24 h): 406 nM
15 | 0.4 | CC(C)(C)c1cn2c(-c3nc(N[C@H]4CNCC[C@@H]4F)c(F)cc3F)cnc2cn1 [Compound 127, 6-(6-(tert-butyl)imidazo[1,2-a]pyrazin-3-yl)-3,5-difluoro-N-((3S,4S)-4-fluoropiperidin-3-yl)pyridin-2-amine] | –
16 | < 0.5 | CC1(c2cn3c(-c4cccc(N[C@H]5CNCC56CC6)n4)cnc3cn2)CC1 [Compound 5, (R)-N-(6-(6-(1-methylcyclopropyl)imidazo[1,2-a]pyrazin-3-yl)pyridin-2-yl)-5-azaspiro[2.4]heptan-7-amine] | –
17 | < 0.5 | FC(F)COc1cn2c(-c3cccc(N[C@H]4CNC[C@@H]4F)n3)cnc2cn1 [Compound 58, 6-(6-(2,2-difluoroethoxy)imidazo[1,2-a]pyrazin-3-yl)-N-((3S,4S)-4-fluoropyrrolidin-3-yl)pyridin-2-amine] | –
18 | < 0.5 | CC(C)(O)c1cn2c(-c3nc(N[C@@H]4CCCNC4)c(F)cc3F)cnc2cn1 [Compound 34, (R)-2-(3-(3,5-difluoro-6-(piperidin-3-ylamino)pyridin-2-yl)imidazo[1,2-a]pyrazin-6-yl)propan-2-ol] | –
19 | < 0.5 | CC1(c2cn3c(-c4cccc(N[C@@H]5CCNC5)n4)cnc3cn2)CC1 [Compound 3, (R)-6-(6-(1-methylcyclopropyl)imidazo[1,2-a]pyrazin-3-yl)-N-(pyrrolidin-3-yl)pyridin-2-amine] | –
20 | < 0.5 | CC(C)(C)c1cn2c(-c3cccc(N[C@H]4CNCC[C@@H]4F)n3)cnc2cn1 [Compound 130, 6-(6-(tert-butyl)imidazo[1,2-a]pyrazin-3-yl)-N-((3S,4S)-4-fluoropiperidin-3-yl)pyridin-2-amine] | –
21 | – | CC(C)(O)c1cn2c(-c3cccc(N[C@@H]4CCCNC4)n3)cnc2cn1 [Compound 30, (R)-2-(3-(6-(piperidin-3-ylamino)pyridin-2-yl)imidazo[1,2-a]pyrazin-6-yl)propan-2-ol] | IC50 (NF-κB [1]; 24 hours): 28 nM; IC50 (NF-κB [2]; 24 hours): 40 nM
